Like-named read-outs stand apart in the source and are kept apart here.
How the values were obtained:
[1] = Bi-directional permeability in Caco-2 cells; details: human
Description: (§5) Bi-Directional Permeability of PEG-Floxuridine Conjugates in Caco-2 and MDCK Cells

Caco-2 cells [2] = experiment: Bi-directional permeability in Caco-2 cells
Description: as §5

PANC-1 [3] = experiment: In vitro cytotoxicity assay (CellTiter-Glo); assay type: cell-based; details: Homo sapiens, 72 h exposure
Description: (§1) The objective of these studies was to determine the IC50 values for PEG-gemcitabine conjugates against gemcitabine-resistant cell lines based on data from previous Xenograft studies. The cells were exposed for 72 h, and cell viability assessed by using the CellTiter-Glo assay.
The PEG-gemcitabine derivatives and gemcitabine inhibited the growth of most of the cell lines with IC50 values from the nM to low μM range, except for PANC-1 cells. Like the previous study, some of the IC50 values should be interpreted carefully because the concentration range tested was not centered around the IC50. […] The PANC-1 pancreatic cell line, in contrast to BxPC-3, Capan-1, or MIA-PaCa-2, has been shown previously to be resistant in vitro to gemcitabine, and 4′-thio-FAC, a deoxycytidine sulfur- and fluoro-substituted analog (Zajchowski et al., (2005). Int J Cancer. 114(6), 1002-9).

DU145 = experiment: Sulforhodamine B (SRB) growth inhibition assay; assay type: cell-based, Human; details: Homo sapiens, DU-145, SRB assay, cells exposed for 24 h, read-out: GI50 values (μM) DU145
Description: (§2) The aim was to determine the GI50 values for PEG-floxuridine conjugates against a panel of cell lines, and based on previous data from Xenograft studies. […] The test articles were solubilized in dimethylsulfoxide and were tested at four different molar (M) concentrations; 10^−4, 10^−5, 10^−6, M. GI50 (the concentration needed to reduce the growth of treated cells to half that of untreated control cells) was calculated for each condition ([(Ti−Tz)/(C-Tz)]×100=50, where Ti, Tz, and C refer to absorbance values obtained from each tested concentration, time zero, and control treatment, respectively).
as §2, with “The objective” for “The aim”, “the IC50” for “the GI50”, “for PEG-gemcitabine” for “for PEG-floxuridine”, “in dimethyl sulfoxide” for “in dimethylsulfoxide”, “10^−6, 10^−7” for “10^−6,”, “condition ([(Ti−Tz)/(C−Tz)]×100=50,” for “condition ([(Ti−Tz)/(C-Tz)]×100=50,”

Caco-2 cells [4] = test system: Caco-2 cells
Description: as §5

CAKI-1 = experiment: In vitro cytotoxicity assay (CellTiter-Glo); assay type: cell-based; details: Homo sapiens, 72 h exposure, CellTiter-Glo
in vitro = details: human
Description: Cells were inoculated into 24-well microtiter plates in 100 μL at 5×10^3 cells/well, in duplicate. After 24 h, test articles were added to the cells for 24 or 48 h, after which time the supernatant from each of the wells was collected and stored below −15° C. until LC/MS analysis.

PANC-1 [5] = details: Zajchowski et al. 2005; cited from earlier work
[6] = Bi-directional permeability in MDCK cells; details: dog
Description: as §5

MDCK cells [7] = experiment: Bi-directional permeability in MDCK cells
Description: as §5

MDCK cells [8] = test system: MDCK cells
Description: as §5

HCT15 = experiment: Sulforhodamine B (SRB) growth inhibition assay; assay type: cell-based, Human; details: Homo sapiens, HCT-15, SRB assay
Description: (§3) In Vitro Screening of PEG-Gemcitabine Monophosphate in Selected Human Cancer Cell Lines
as §2
as §2, with “The objective” for “The aim”, “the IC50” for “the GI50”, “for PEG-gemcitabine” for “for PEG-floxuridine”, “in dimethyl sulfoxide” for “in dimethylsulfoxide”, “10^−6, 10^−7” for “10^−6,”, “condition ([(Ti−Tz)/(C−Tz)]×100=50,” for “condition ([(Ti−Tz)/(C-Tz)]×100=50,”

Hop62 = experiment: Sulforhodamine B (SRB) growth inhibition assay; assay type: cell-based, Human; details: Homo sapiens, HOP-62, SRB assay
Description: as §3, §2
as §2, with “The objective” for “The aim”, “the IC50” for “the GI50”, “for PEG-gemcitabine” for “for PEG-floxuridine”, “in dimethyl sulfoxide” for “in dimethylsulfoxide”, “10^−6, 10^−7” for “10^−6,”, “condition ([(Ti−Tz)/(C−Tz)]×100=50,” for “condition ([(Ti−Tz)/(C-Tz)]×100=50,”

A2780 = experiment: Sulforhodamine B (SRB) growth inhibition assay; assay type: cell-based, Human; details: Homo sapiens, SRB assay
Description: as §3, §2
as §2, with “The objective” for “The aim”, “the IC50” for “the GI50”, “for PEG-gemcitabine” for “for PEG-floxuridine”, “in dimethyl sulfoxide” for “in dimethylsulfoxide”, “10^−6, 10^−7” for “10^−6,”, “condition ([(Ti−Tz)/(C−Tz)]×100=50,” for “condition ([(Ti−Tz)/(C-Tz)]×100=50,”

COLO205 = experiment: Sulforhodamine B (SRB) growth inhibition assay; assay type: cell-based, Human; details: Homo sapiens, COLO 205, COLO205, SRB assay
Description: as §3, §2
as §2, with “The objective” for “The aim”, “the IC50” for “the GI50”, “for PEG-gemcitabine” for “for PEG-floxuridine”, “in dimethyl sulfoxide” for “in dimethylsulfoxide”, “10^−6, 10^−7” for “10^−6,”, “condition ([(Ti−Tz)/(C−Tz)]×100=50,” for “condition ([(Ti−Tz)/(C-Tz)]×100=50,”

HT29 = experiment: Sulforhodamine B (SRB) growth inhibition assay; assay type: cell-based, Human; details: Homo sapiens, HT-29, SRB assay
Description: as §3, §2
as §2, with “The objective” for “The aim”, “the IC50” for “the GI50”, “for PEG-gemcitabine” for “for PEG-floxuridine”, “in dimethyl sulfoxide” for “in dimethylsulfoxide”, “10^−6, 10^−7” for “10^−6,”, “condition ([(Ti−Tz)/(C−Tz)]×100=50,” for “condition ([(Ti−Tz)/(C-Tz)]×100=50,”

MCF7 = experiment: Sulforhodamine B (SRB) growth inhibition assay; assay type: cell-based, Human; details: Homo sapiens
Description: as §3, §2
as §2, with “The objective” for “The aim”, “the IC50” for “the GI50”, “for PEG-gemcitabine” for “for PEG-floxuridine”, “in dimethyl sulfoxide” for “in dimethylsulfoxide”, “10^−6, 10^−7” for “10^−6,”, “condition ([(Ti−Tz)/(C−Tz)]×100=50,” for “condition ([(Ti−Tz)/(C-Tz)]×100=50,”

MIA PaCa-2 = experiment: In vitro cytotoxicity assay (CellTiter-Glo); assay type: cell-based; details: Homo sapiens, 72 h exposure, CellTiter-Glo
Description: (§4) The objective of these studies were to determine the IC50 values for PEG-floxuridine conjugates against floxuridine-resistant cell lines based on data from previous Xenograft studies. The cells were exposed for 72 h, and cell viability assessed by using the CellTiter-Glo assay.
as §1

HT-29 = experiment: In vitro cytotoxicity assay (CellTiter-Glo); assay type: cell-based; details: Homo sapiens, 72 h exposure, CellTiter-Glo
Description: as §4, §1

HCT-116 = experiment: In vitro cytotoxicity assay (CellTiter-Glo); assay type: cell-based; details: Homo sapiens, 72 h exposure, CellTiter-Glo
Description: as §4, §1

NCI-H460 = experiment: In vitro cytotoxicity assay (CellTiter-Glo); assay type: cell-based; details: Homo sapiens, 72 h exposure, CellTiter-Glo
Description: as §1

NCI-H23 = experiment: In vitro cytotoxicity assay (CellTiter-Glo); assay type: cell-based; details: Homo sapiens, 72 h exposure, CellTiter-Glo
Description: as §1

DLD-1 = experiment: In vitro cytotoxicity assay (CellTiter-Glo); assay type: cell-based; details: Homo sapiens, 72 h exposure, CellTiter-Glo
Description: as §1

NCI-H522 = experiment: In vitro cytotoxicity assay (CellTiter-Glo); assay type: cell-based; details: Homo sapiens, 72 h exposure, CellTiter-Glo
Description: as §1

RL = experiment: In vitro cytotoxicity assay (CellTiter-Glo); assay type: cell-based; details: Homo sapiens, 72 h exposure, CellTiter-Glo
Description: as §1

CCRF-CEM = experiment: In vitro cytotoxicity assay (CellTiter-Glo); assay type: cell-based; details: Homo sapiens, 72 h exposure, CellTiter-Glo
Description: as §1

K-562 = experiment: In vitro cytotoxicity assay (CellTiter-Glo); assay type: cell-based; details: Homo sapiens, K562, 72 h exposure, CellTiter-Glo
Description: as §1

HL-60 = experiment: In vitro cytotoxicity assay (CellTiter-Glo); assay type: cell-based; details: Homo sapiens, 72 h exposure, CellTiter-Glo
Description: as §1

AS283 = experiment: In vitro cytotoxicity assay (CellTiter-Glo); assay type: cell-based; details: 72 h exposure, CellTiter-Glo
Description: as §1

SW-620 = experiment: In vitro cytotoxicity assay (CellTiter-Glo); assay type: cell-based; details: Homo sapiens, 72 h exposure, CellTiter-Glo
Description: as §1

Papp A→B [1]: 0.3 ×10⁻⁶ cm/s | Papp B→A [1]: 0.42 ×10⁻⁶ cm/s | efflux ratio [1]: 1.4 | recovery ([1]; Caco-2, percent recovery A -> B): 90% | recovery ([1]; Caco-2, percent recovery B -> A): 89% | permeability across Caco-2 monolayers (in words) (Caco-2 cells [2]): poor permeability | GI50 (DU145): < 0.1 µM | Significant efflux (Caco-2 cells [4]): No | recovery (in vitro): 100 to 110% | Papp A→B [6]: 0.17 ×10⁻⁶ cm/s | Papp B→A [6]: 0.12 ×10⁻⁶ cm/s | efflux ratio [6]: 0.7 | recovery ([6]; percent recovery A -> B): 96% | recovery ([6]; percent recovery B -> A): 95% | permeability through MDCK monolayers (in words) (MDCK cells [7]): poor permeability | Significant efflux (MDCK cells [8]): No | GI50 (HCT15; 48 h drug exposure, read-out: GI50 (molar concentration) in Cell Line HCT15): 0.16 µM | GI50 (HCT15; cells exposed for 24 h, read-out: GI50 values (μM) HCT15): 0.16 µM | GI50 (A2780; 48 h drug exposure, read-out: GI50 (molar concentration) in Cell Line A2780): < 0.1 µM | GI50 (A2780; cells exposed for 24 h, read-out: GI50 values (μM) A2780): < 0.1 µM | GI50 (COLO205; 48 h drug exposure, read-out: GI50 (molar concentration) in Cell Line COLO205): 0.14 µM | GI50 (COLO205; cells exposed for 24 h, read-out: GI50 values (μM) COLO205): 0.14 µM | GI50 (HT29; 48 h drug exposure, read-out: GI50 (molar concentration) in Cell Line HT29): 2.1 µM | GI50 (HT29; cells exposed for 24 h, read-out: GI50 values (μM) HT29): 2.1 µM | GI50 (MCF7; MCF-7 cell line, read-out: GI50 (MCF-7 moderately sensitive)): ~0.1 µM | GI50 (MCF7; SRB assay, 48 h drug exposure, read-out: GI50 (molar concentration) in Cell Line MCF7): < 0.1 µM | GI50 (MCF7; SRB assay, cells exposed for 24 h, read-out: GI50 values (μM) MCF7): < 0.1 µM
SMILES: Nc1ccn([C@@H]2O[C@H](CO)[C@@H](O)C2(F)F)c(=O)n1 [Gemcitabine, reference compound]
IC50 (PANC-1 [3]): > 1e+06 nM | IC50 (CAKI-1): 8.3 nM | resistance of PANC-1 in vitro (shown previously) (PANC-1 [5]): resistant | GI50 (Hop62; 48 h drug exposure, read-out: GI50 (molar concentration) in Cell Line Hop62): 1.8 µM | GI50 (Hop62; cells exposed for 24 h, read-out: GI50 values (μM) Hop62): 1.8 µM | IC50 (MIA PaCa-2): 26 nM | IC50 (HT-29): 111 nM | IC50 (HCT-116): 1.9 nM | IC50 (NCI-H460): 14 nM | IC50 (NCI-H23): 6.9 nM | IC50 (DLD-1): 22 nM | IC50 (NCI-H522): 4.4 nM | IC50 (RL): 281 nM | IC50 (CCRF-CEM): 7 nM | IC50 (K-562): 697 nM | IC50 (HL-60): 1.7 nM | IC50 (AS283): 124 nM | IC50 (SW-620): 49 nM
